Values quoted from earlier work, collected in patent publication US9339030B2, “Foamable pesticide compositions and methods of application” (BASF Corporation, priority 2009, dated 2016).

Experiments:
termites = details: general statement, no experiment described
ants = details: general statement, no experiment described

N#Cc1nn(-c2c(Cl)cc(C(F)(F)F)cc2Cl)c(N)c1[S+]([O-])C(F)(F)F (racemic) [fipronil, (±)-5-amino-1-(2,6-dichloro-α,α,α-trifluoro-p-tolyl)-4-trifluoromethylsulfinylpyrazole-3-carbonitrile]
dose toxic to termites (termites): 2 nanograms per termite
dose toxic to ants (ants): about 1 nanogram per ant
